Data: patent US8889881B2, “Compound having skin-whitening, anti-oxidizing and PPAR activities and medical use therefor” (Pusan National University Industry —University Cooperation …, priority 2011, dated 2014)
“Also recorded” adds a separate entry of the source.

Tests used:
PPAR gamma-LBD = target: T1, PPAR gamma-LBD (Homo sapiens, UniProt P37231); test: PPAR assay, PPARγ; assay type: binding; settings: sample final concentration 100 μM; positive control rosiglitazone; FIGS. 7 and 8
T1 sequence (P37231 238-503 limits assumed): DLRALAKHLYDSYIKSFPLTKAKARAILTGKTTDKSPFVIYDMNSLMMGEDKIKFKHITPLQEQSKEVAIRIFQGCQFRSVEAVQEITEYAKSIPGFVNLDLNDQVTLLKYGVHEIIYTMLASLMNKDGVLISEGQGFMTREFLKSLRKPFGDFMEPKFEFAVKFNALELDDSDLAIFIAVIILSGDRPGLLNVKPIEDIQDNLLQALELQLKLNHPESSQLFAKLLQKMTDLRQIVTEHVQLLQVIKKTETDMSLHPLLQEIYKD

PPAR alpha-LBD = target: T2, PPAR alpha-LBD (Homo sapiens, UniProt Q07869); test: PPAR assay, PPARα; settings: for PPARα activation (competitive activation rate), compared with fenofibrate: sample final concentration 100 μM, positive control fenofibrate, FIGS. 5 and 6; for simultaneous activation of PPARα and PPARγ: summary of the PPARα and PPARγ assays, sample 100 μM
T2 sequence (Q07869 239-466 limits assumed): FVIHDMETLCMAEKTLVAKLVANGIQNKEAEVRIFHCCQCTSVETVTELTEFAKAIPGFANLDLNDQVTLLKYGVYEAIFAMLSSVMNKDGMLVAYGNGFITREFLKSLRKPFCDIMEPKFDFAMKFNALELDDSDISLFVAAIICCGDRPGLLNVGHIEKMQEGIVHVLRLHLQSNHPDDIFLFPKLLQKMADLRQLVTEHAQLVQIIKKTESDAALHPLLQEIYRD

Row | SMILES | melting point | other results
1 | O=C(O)[C@@H]1CSC(c2ccc(O)cc2)N1 (mixture of isomers) [Compound 1, (2R/S,4R)-2-(4-hydroxyphenyl)thiazolidine-4-carboxylic acid] | 161.8 to 164.4 °C | –
2 | CCOc1cc(C2N[C@H](C(=O)O)CS2)ccc1O (mixture of isomers) [Compound 5, (2R/S,4R)-2-(3-ethoxy-4-hydroxyphenyl)thiazolidine-4-carboxylic acid] | 174.3 to 175.9 °C | –
3 | COc1ccc(C2N[C@H](C(=O)O)CS2)cc1OC (mixture of isomers) [Compound 8, (2R/S,4R)-2-(3,4-dimethoxyphenyl)thiazolidine-4-carboxylic acid] | 173.6 to 175.4 °C | –
4 | COc1cc(C2N[C@H](C(=O)O)CS2)cc(OC)c1OC (mixture of isomers) [Compound 11, (2R/S,4R)-2-(3,4,5-trimethoxyphenyl)thiazolidine-4-carboxylic acid] | 197 to 199.7 °C | –
5 | COc1cc(C2N[C@H](C(=O)O)CS2)cc(OC)c1O (mixture of isomers) [Compound 12, (2R/S,4R)-2-(4-hydroxy-3,5-dimethoxyphenyl)thiazolidine-4-carboxylic acid] | 139.6 to 141 °C | –
6 | COc1cc(-c2nc3ccccc3s2)ccc1O [Compound 16, 4-(benzo[d]thiazol-2-yl)-2-methoxyphenol] | – | PPARγ activation (competitive activation rate), compared with rosiglitazone (PPAR gamma-LBD): very excellent PPARγ activation agent compared to rosiglitazone; PPARα activation (competitive activation rate), compared with fenofibrate (PPAR alpha-LBD): very excellent PPARα activation agent compared to fenofibrate; simultaneous activation of PPARα and PPARγ (PPAR alpha-LBD): simultaneously activates PPARα and PPARγ
7 | CCOc1cc(-c2nc3ccccc3s2)ccc1O [Compound 17, 4-(benzo[d]thiazol-2-yl)-2-ethoxyphenol] | – | PPARγ activation (competitive activation rate), compared with rosiglitazone (PPAR gamma-LBD): very excellent PPARγ activation agent compared to rosiglitazone; PPARα activation (competitive activation rate), compared with fenofibrate (PPAR alpha-LBD): very excellent PPARα activation agent compared to fenofibrate; simultaneous activation of PPARα and PPARγ (PPAR alpha-LBD): simultaneously activates PPARα and PPARγ
8 | Oc1cc(O)cc(-c2nc3ccccc3s2)c1 [Compound 21, 5-(benzo[d]thiazol-2-yl)benzene-1,3-diol] | 274.5 to 276.5 °C | –
9 | COc1ccc(-c2nc3ccccc3s2)c(OC)c1 [Compound 22, 2-(2,4-dimethoxyphenyl)benzo[d]thiazole] | 137.4 to 138.9 °C | –
10 | Oc1ccc(-c2nc3ccccc3s2)cc1Br [Compound 26, 4-(benzo[d]thiazol-2-yl)-2-bromophenol] | – | PPARγ activation (competitive activation rate), compared with rosiglitazone (PPAR gamma-LBD): the most excellent PPARγ activation agent; also recorded: very excellent PPARγ activation agent compared to rosiglitazone; PPARα activation (competitive activation rate), compared with fenofibrate (PPAR alpha-LBD): the most excellent PPARα activation agent; also recorded: very excellent PPARα activation agent compared to fenofibrate; simultaneous activation of PPARα and PPARγ (PPAR alpha-LBD): simultaneously activates PPARα and PPARγ
11 | COc1ccc(-c2nc3cc(C(F)(F)F)ccc3s2)cc1O [Compound 33, 2-methoxy-5-(5-(trifluoromethyl)benzo[d]thiazol-2-yl)phenol] | 142.1 to 144.5 °C | –
12 | COc1ccc(-c2nc3cc(C(F)(F)F)ccc3s2)cc1OC [Compound 35, 2-(3,4-dimethoxyphenyl)-5-(trifluoromethyl)benzo[d]thiazole] | 120.4 to 121.6 °C | –
13 | Oc1cc(O)cc(-c2nc3cc(C(F)(F)F)ccc3s2)c1 [Compound 36, 5-(5-(trifluoromethyl)benzo[d]thiazol-2-yl)benzene-1,3-diol] | 256.7 to 260.6 °C | –
14 | COc1ccc(-c2nc3cc(C(F)(F)F)ccc3s2)c(OC)c1 [Compound 37, 2-(2,4-dimethoxyphenyl)-5-(trifluoromethyl)benzo[d]thiazole] | 140.4 to 141.6 °C | –
15 | Oc1ccccc1-c1nc2cc(C(F)(F)F)ccc2s1 [Compound 38, 2-(5-(trifluoromethyl)benzo[d]thiazol-2-yl)phenol] | 175 to 176.5 °C | –
16 | COc1cc(-c2nc3cc(C(F)(F)F)ccc3s2)cc(OC)c1OC [Compound 39, 5-(trifluoromethyl)-2-(3,4,5-trimethoxyphenyl)benzo[d]thiazole] | 132.5 to 134 °C | –
17 | Oc1ccc(-c2nc3ccccc3[nH]2)cc1 [Compound 43, 4-(1H-benzo[d]imidazol-2-yl)phenol] | – | PPARγ activation (competitive activation rate), compared with rosiglitazone (PPAR gamma-LBD): very excellent PPARγ activation agent compared to rosiglitazone; PPARα activation (competitive activation rate), compared with fenofibrate (PPAR alpha-LBD): very excellent PPARα activation agent compared to fenofibrate; simultaneous activation of PPARα and PPARγ (PPAR alpha-LBD): simultaneously activates PPARα and PPARγ
18 | CCOc1cc(-c2nc3ccccc3[nH]2)ccc1O [Compound 47, 4-(1H-benzo[d]imidazol-2-yl)-2-ethoxyphenol] | – | PPARγ activation (competitive activation rate), compared with rosiglitazone (PPAR gamma-LBD): very excellent PPARγ activation agent compared to rosiglitazone; PPARα activation (competitive activation rate), compared with fenofibrate (PPAR alpha-LBD): very excellent PPARα activation agent compared to fenofibrate; simultaneous activation of PPARα and PPARγ (PPAR alpha-LBD): simultaneously activates PPARα and PPARγ
19 | COc1cc(-c2nc3ccccc3[nH]2)cc(OC)c1OC [Compound 54, 2-(3,4,5-trimethoxyphenyl)-1H-benzo[d]imidazole] | 257 to 257.7 °C | –

Row | SMILES | melting point | other results
20 | Oc1ccc(-c2nc3ccccc3[nH]2)cc1Br [Compound 56, 4-(1H-benzo[d]imidazol-2-yl)-2-bromophenol] | – | PPARγ activation (competitive activation rate), compared with rosiglitazone (PPAR gamma-LBD): very excellent PPARγ activation agent compared to rosiglitazone
21 | O=C(O)c1ccc2[nH]c(-c3ccc(O)cc3)nc2c1 [Compound 57, 2-(4-hydroxyphenyl)-1H-benzo[d]imidazole-5-carboxylic acid] | > 300 °C | –
22 | COc1cc(-c2nc3cc(C(=O)O)ccc3[nH]2)ccc1O [Compound 60, 2-(4-hydroxy-3-methoxyphenyl)-1H-benzo[d]imidazole-5-carboxylic acid] | > 300 °C | –
23 | CCOc1cc(-c2nc3cc(C(=O)O)ccc3[nH]2)ccc1O [Compound 61, 2-(3-ethoxy-4-hydroxyphenyl)-1H-benzo[d]imidazole-5-carboxylic acid] | > 300 °C | –
24 | COc1ccc(-c2nc3cc(C(=O)O)ccc3[nH]2)cc1O [Compound 62, 2-(3-hydroxy-4-methoxyphenyl)-1H-benzo[d]imidazole-5-carboxylic acid] | 246.6 to 247.7 °C | –
25 | COc1cc(-c2nc3cc(C(=O)O)ccc3[nH]2)cc(OC)c1O [Compound 68, 2-(4-hydroxy-3,5-dimethoxyphenyl)-1H-benzo[d]imidazole-5-carboxylic acid] | 280 to 281.4 °C | –
26 | Oc1ccc(-c2nc3cc(Cl)ccc3s2)c(O)c1 [Compound 84, 4-(5-chlorobenzo[d]thiazol-2-yl)benzene-1,3-diol] | 277.9 to 280.1 °C | –
27 | COc1ccc(-c2nc3cc(Cl)ccc3s2)cc1O [Compound 87, 5-(5-chlorobenzo[d]thiazol-2-yl)-2-methoxyphenol] | 158.2 to 158.6 °C | –
28 | COc1ccc(-c2nc3cc(Cl)ccc3s2)cc1OC [Compound 89, 5-chloro-2-(3,4-dimethoxyphenyl)benzo[d]thiazole] | 165.2 to 167.1 °C | –
29 | Oc1cc(O)cc(-c2nc3cc(Cl)ccc3s2)c1 [Compound 90, 5-(5-chlorobenzo[d]thiazol-2-yl)benzene-1,3-diol] | 129.6 to 130.6 °C | –
30 | COc1ccc(-c2nc3cc(Cl)ccc3s2)c(OC)c1 [Compound 91, 5-chloro-2-(2,4-dimethoxyphenyl)benzo[d]thiazole] | 138.6 to 140.3 °C | –
31 | Oc1ccccc1-c1nc2cc(Cl)ccc2s1 [Compound 92, 2-(5-chlorobenzo[d]thiazol-2-yl)phenol] | 194.2 to 195.7 °C | –
32 | COc1cc(-c2nc3cc(Cl)ccc3s2)cc(OC)c1OC [Compound 93, 5-chloro-2-(3,4,5-trimethoxyphenyl)benzo[d]thiazole] | 159.4 to 160 °C | –
33 | c1ccc(COc2ccc(-c3nc4ccccc4s3)cc2)cc1 [Compound 107, 2-(4-(benzyloxy)phenyl)benzo[d]thiazole] | 166.1 to 167.2 °C | –
34 | FC(F)(F)c1ccc2sc(-c3ccc(OCc4ccccc4)cc3)nc2c1 [Compound 108, 2-(4-(benzyloxy)phenyl)-5-(trifluoromethyl)benzo[d]thiazole] | 194.3 to 195.1 °C | –
35 | Clc1ccc2sc(-c3ccc(OCc4ccccc4)cc3)nc2c1 [Compound 109, 2-(4-(benzyloxy)phenyl)-5-chlorobenzo[d]thiazole] | 142.7 to 143.3 °C | –
36 | c1ccc(COc2cccc(-c3nc4ccccc4s3)c2)cc1 [Compound 110, 2-(3-(benzyloxy)phenyl)benzo[d]thiazole] | 121.5 to 122.1 °C | –
37 | FC(F)(F)c1ccc2sc(-c3cccc(OCc4ccccc4)c3)nc2c1 [Compound 111, 2-(3-(Benzyloxy)phenyl)-5-(trifluoromethyl)benzo[d]thiazole] | 93.8 to 95.1 °C | –
38 | c1ccc(COc2ccc(-c3nc4ccccc4[nH]3)cc2)cc1 [Compound 114, 2-(4-(benzyloxy)phenyl)-1H-benzo[d]imidazole] | – | PPARα activation (competitive activation rate), compared with fenofibrate (PPAR alpha-LBD): very excellent PPARα activation agent compared to fenofibrate
